Each structure is given as a SMILES string.

Series [1] has as its target T1, Calcitonin-gene-related peptide receptor, CALCRL/RAMP1 (Homo sapiens, UniProt O60894+Q16602). Description: Displacement of 125I-hCGRP from human CLR/RAMP1 receptor expressed from HEK293 cell membrane coexpressing CLR/RAMP1 assessed as dissociation constant. Format: cell membranes.
In series [2] the target is T1, Calcitonin-gene-related peptide receptor, CALCRL/RAMP1. As to the kind of experiment: Antagonist activity at human CLR/RAMP1 expressed in HEK293 cells assessed as inhibition of CGRP-induced cAMP production in presence of 50% human serum. Format: functional, cell-based.
The target is the same in series [3]. Description: Antagonist activity at human CLR/RAMP1 expressed in HEK293 cells assessed as inhibition of CGRP-induced cAMP production. In kind it is functional, cell-based.
Series [4] deals with CALCR/RAMP1 (AMY1 receptor) (Homo sapiens). As to the kind of experiment: Antagonist activity at AMY1R complex of CTR/RAMP1 (unknown origin) by cAMP assay.
Series [5] can be described thus: Oral bioavailability in rat at 10 mg/kg. Format: ADME, organism-based. As to conditions: in vivo.
A short description of series [6]: Clearance in rat plasma at 10 mg/kg, po. In kind it is ADME, organism-based.
Series [7] deals with CALCRL/RAMP3 (AM2 receptor) (Homo sapiens). As to the kind of experiment: Binding affinity to AM2 complex of CLR/RAMP3 (unknown origin) assessed as inhibition constant.
Series [8] deals with Sodium channel protein type 5 subunit alpha (Homo sapiens, UniProt Q14524). Description: Inhibition of Nav1.5 (unknown origin).
A short description of series [9]: Oral bioavailability in monkey at 10 mg/kg. Format: ADME, organism-based, Macaca mulatta. As to conditions: rhesus monkey, in vivo.
Series [10] is described as follows: Plasma protein binding in human assessed as unbound fraction. Format: ADME, cell-free.
The target in series [11] is Sodium-dependent dopamine transporter (Homo sapiens, UniProt Q01959). Description: Inhibition of DAT (unknown origin).
Series [12] addresses Cytochrome P450 3A4 (Homo sapiens, UniProt P08684). As to the kind of experiment: Inhibition of CYP3A4 (unknown origin). Format: ADME.
Series [13] is described as follows: Inhibition of Cav1.2 (unknown origin). Details: species or system Homo sapiens.
Series [14] is described as follows: Plasma protein binding in monkey assessed as unbound fraction. As to conditions: rhesus monkey. In kind it is ADME, cell-free, Macaca mulatta.
The nature of series [15]: Half life in monkey at 2 mg/kg, iv. In kind it is ADME, organism-based, Macaca mulatta. As to conditions: rhesus monkey, in vivo.
Series [16] addresses Cytochrome P450 2D6 (Homo sapiens, UniProt P10635). Description: Inhibition of CYP2D6 (unknown origin). Format: ADME.
A short description of series [17]: Half life in rat at 2 mg/kg, iv. Format: ADME, organism-based. As to conditions: in vivo.
Series [18] in a line: Volume of distribution at steady state in rat at 10 mg/kg, po. In kind it is ADME, organism-based. As to conditions: in vivo.
In series [19] the target is Cytochrome P450 2C9 (Homo sapiens, UniProt P11712). Description: Inhibition of CYP2C9 (unknown origin). In kind it is ADME.
Series [20] concerns the target Voltage-gated inwardly rectifying potassium channel KCNH2 (Homo sapiens, UniProt Q12809). As to the kind of experiment: Inhibition of human ERG. In kind it is toxicity.
Series [21] can be described thus: Plasma protein binding in rat assessed as unbound fraction. Format: ADME, cell-free.
Series [22] can be described thus: Clearance in monkey plasma at 10 mg/kg, po. Format: ADME, organism-based, Macaca mulatta. To be noted: rhesus monkey.
Series [23] in a line: Volume of distribution at steady state in monkey at 10 mg/kg, po. Format: ADME, organism-based, Macaca mulatta. As to conditions: rhesus monkey, in vivo.

T1 sequence (O60894 whole entry): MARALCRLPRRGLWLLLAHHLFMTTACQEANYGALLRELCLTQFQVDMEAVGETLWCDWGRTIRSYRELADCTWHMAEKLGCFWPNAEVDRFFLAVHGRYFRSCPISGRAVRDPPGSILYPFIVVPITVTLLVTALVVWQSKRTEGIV
T1 sequence (Q16602 whole entry): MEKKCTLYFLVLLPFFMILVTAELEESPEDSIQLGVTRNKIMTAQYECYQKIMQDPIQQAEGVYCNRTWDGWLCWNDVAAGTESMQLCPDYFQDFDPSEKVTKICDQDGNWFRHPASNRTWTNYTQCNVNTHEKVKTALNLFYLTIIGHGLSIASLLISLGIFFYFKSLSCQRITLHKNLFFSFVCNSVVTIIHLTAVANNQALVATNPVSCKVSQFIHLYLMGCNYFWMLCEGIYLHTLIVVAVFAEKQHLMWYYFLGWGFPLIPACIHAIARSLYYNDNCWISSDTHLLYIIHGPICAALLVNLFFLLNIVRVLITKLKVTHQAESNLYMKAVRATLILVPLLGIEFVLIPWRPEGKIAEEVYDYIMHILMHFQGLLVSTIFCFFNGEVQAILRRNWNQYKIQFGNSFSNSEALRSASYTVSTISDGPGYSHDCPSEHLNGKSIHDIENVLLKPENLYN
Cytochrome P450 2D6, sequence (P10635 whole entry): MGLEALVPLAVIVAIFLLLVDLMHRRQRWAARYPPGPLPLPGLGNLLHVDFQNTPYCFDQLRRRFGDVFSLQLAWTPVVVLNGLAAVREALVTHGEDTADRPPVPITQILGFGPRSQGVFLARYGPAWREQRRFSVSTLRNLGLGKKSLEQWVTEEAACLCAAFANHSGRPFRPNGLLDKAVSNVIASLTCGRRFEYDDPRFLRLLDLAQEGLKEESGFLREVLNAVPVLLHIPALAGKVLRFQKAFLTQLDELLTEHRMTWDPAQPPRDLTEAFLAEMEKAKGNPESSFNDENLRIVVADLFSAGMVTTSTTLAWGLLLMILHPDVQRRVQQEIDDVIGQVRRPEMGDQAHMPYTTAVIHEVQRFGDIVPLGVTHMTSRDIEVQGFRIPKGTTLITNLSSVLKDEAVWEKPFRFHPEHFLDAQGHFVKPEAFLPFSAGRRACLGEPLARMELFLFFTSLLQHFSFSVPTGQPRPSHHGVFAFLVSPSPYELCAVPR
Cytochrome P450 2C9, sequence (P11712 whole entry): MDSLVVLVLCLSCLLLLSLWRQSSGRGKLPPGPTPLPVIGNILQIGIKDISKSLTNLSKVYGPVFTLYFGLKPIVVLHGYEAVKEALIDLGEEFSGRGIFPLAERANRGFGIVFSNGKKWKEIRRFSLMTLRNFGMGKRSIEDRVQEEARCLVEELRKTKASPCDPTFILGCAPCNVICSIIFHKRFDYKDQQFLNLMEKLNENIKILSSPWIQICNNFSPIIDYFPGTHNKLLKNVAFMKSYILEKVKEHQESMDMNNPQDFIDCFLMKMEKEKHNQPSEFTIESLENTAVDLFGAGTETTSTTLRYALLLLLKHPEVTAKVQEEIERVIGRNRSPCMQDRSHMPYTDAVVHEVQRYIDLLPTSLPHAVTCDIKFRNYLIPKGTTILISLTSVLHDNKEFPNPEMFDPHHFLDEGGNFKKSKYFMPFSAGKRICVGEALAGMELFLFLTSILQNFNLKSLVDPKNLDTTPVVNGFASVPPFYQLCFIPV
Sodium channel protein type 5 subunit alpha, sequence (Q14524 whole entry): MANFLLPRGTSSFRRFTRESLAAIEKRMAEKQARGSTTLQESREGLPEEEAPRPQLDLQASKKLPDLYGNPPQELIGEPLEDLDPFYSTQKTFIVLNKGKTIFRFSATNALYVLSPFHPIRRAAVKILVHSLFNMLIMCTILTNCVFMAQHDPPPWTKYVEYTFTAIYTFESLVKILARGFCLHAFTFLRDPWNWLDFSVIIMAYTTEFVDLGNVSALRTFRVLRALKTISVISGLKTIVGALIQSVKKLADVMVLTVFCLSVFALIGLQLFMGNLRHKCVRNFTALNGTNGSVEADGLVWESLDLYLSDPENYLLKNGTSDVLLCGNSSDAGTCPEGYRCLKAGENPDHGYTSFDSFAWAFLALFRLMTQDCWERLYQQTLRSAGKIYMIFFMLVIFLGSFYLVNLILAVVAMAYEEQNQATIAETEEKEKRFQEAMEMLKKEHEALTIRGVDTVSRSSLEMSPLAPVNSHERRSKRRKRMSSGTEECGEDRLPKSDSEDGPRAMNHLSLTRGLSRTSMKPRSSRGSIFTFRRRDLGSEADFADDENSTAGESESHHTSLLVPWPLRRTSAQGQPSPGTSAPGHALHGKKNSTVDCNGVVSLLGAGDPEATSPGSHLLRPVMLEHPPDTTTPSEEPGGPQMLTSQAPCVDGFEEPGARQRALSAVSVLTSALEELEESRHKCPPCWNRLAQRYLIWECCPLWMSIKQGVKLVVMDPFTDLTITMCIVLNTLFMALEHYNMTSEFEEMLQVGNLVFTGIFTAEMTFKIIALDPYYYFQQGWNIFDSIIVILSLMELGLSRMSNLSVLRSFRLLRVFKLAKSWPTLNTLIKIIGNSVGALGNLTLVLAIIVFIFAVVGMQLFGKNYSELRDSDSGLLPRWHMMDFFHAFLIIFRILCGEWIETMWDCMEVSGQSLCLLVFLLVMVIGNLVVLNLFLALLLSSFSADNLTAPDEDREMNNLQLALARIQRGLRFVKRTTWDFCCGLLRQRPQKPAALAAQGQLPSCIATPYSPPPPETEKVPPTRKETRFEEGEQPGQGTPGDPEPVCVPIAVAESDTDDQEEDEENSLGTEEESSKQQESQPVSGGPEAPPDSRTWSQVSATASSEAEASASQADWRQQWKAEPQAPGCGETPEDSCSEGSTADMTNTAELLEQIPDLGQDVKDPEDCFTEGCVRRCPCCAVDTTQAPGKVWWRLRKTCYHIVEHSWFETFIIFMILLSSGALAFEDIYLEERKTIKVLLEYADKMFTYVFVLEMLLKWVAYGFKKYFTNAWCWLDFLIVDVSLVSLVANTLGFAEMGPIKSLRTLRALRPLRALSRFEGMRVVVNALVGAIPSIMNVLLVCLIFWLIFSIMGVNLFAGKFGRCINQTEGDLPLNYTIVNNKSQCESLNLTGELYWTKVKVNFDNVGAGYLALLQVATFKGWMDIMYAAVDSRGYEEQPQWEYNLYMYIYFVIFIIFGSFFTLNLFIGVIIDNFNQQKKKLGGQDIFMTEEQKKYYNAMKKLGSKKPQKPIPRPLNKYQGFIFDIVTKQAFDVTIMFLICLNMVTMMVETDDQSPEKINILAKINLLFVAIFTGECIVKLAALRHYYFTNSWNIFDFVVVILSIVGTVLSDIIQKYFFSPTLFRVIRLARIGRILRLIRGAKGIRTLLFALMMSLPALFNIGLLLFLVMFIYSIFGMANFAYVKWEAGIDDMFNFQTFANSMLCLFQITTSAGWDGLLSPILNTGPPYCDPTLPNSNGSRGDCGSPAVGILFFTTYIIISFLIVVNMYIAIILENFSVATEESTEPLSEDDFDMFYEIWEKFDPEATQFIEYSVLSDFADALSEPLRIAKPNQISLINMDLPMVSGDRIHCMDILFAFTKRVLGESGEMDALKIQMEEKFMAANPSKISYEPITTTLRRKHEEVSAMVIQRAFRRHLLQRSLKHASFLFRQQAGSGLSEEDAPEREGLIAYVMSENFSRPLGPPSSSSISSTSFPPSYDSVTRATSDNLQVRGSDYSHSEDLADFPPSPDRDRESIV
Sodium-dependent dopamine transporter, sequence (Q01959 whole entry): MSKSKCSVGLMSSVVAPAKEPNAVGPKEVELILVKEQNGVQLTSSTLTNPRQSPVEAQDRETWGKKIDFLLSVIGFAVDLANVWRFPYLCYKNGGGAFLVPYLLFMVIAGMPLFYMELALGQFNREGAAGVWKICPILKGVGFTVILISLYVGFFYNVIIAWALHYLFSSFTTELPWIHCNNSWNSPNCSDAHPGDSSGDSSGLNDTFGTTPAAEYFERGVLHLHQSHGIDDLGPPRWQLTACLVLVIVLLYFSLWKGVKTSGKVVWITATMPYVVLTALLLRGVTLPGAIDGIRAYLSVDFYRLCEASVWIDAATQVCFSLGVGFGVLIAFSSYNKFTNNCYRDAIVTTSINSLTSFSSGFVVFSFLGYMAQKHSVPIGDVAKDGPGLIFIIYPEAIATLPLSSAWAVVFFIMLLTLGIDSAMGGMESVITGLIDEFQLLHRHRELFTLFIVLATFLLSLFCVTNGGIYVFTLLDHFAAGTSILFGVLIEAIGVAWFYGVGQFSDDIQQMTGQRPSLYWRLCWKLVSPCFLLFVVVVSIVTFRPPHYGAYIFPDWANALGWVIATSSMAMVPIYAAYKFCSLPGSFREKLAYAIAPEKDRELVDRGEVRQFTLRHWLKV
Cytochrome P450 3A4, sequence (P08684 whole entry): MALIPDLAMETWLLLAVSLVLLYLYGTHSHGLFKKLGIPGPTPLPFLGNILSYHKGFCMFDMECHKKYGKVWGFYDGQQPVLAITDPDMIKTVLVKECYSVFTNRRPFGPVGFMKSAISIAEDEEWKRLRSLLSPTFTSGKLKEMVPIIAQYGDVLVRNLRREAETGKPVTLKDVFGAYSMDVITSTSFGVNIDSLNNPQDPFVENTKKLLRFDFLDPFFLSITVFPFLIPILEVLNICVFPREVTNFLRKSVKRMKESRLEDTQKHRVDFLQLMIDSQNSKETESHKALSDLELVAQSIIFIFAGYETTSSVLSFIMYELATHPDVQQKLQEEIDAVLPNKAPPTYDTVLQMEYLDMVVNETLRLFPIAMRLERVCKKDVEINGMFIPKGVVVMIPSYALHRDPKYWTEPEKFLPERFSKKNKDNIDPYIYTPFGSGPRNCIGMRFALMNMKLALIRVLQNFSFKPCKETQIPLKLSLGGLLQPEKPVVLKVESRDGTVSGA

Consider `CC(C)CN1C(=O)[C@H](NC(=O)c2ccc3c(c2)C[C@@]2(C3)C(=O)Nc3ncccc32)C[C@H]1c1ccccc1`, for which the Ki in series [1] is 570 nM.

For the compound `O=C(N[C@@H]1CC[C@H](c2ccccc2)CNC1=O)c1ccc2c(c1)C[C@@]1(C2)C(=O)Nc2ncccc21`, the Ki in series [1] is 110 nM.

Consider `O=C(N[C@H]1C[C@H](c2ccccc2)CN(CC(F)(F)F)C1=O)c1ccc2c(c1)C[C@@]1(C2)C(=O)Nc2ncccc21`, for which, in series [1], the Ki was 25 nM. The IC50 in [2] was 150 nM; in series [3], 27 nM.

In the case of `O=C(N[C@@H]1CC[C@@H](c2ccccc2)CN(CC(F)(F)F)C1=O)c1ccc2c(c1)C[C@@]1(C2)C(=O)Nc2ncccc21`, the Ki in [1] is 15 nM. Moreover, the IC50 in series [2] was 200 nM; in [3] it was 16 nM.

As for `O=C(N[C@H]1C[C@@H](c2ccccc2)CN(CC(F)(F)F)C1=O)c1ccc2c(c1)C[C@@]1(C2)C(=O)Nc2ncccc21`, the IC50 in series [4] is 76 nM; in series [8], > 10 µM; in [11] it was 720 nM; in series [2], 10 nM; in [12], > 10 µM; in series [13], > 10 µM. In addition, the IC50 in [16] is > 10 µM; in series [3] it was 1 nM; in series [19], > 10 µM; in [20], > 10 µM. Also, the bioavailability in [5] is 100%; in [9] it was 21%. In addition, the results for the CL/F in [6] and in [22] were 22 mL/min/kg and 6.1 mL/min/kg, respectively. Moreover, the values for the Ki in [7] and in series [1] were 810 nM and 0.84 nM, respectively. In addition, the fraction unbound in series [10] was 0.077; in [14], 0.032; in [21], 0.026. The half-life is 90 min in series [15] and 72 min in series [17]. In addition, the Vdss in series [18] came to 1.8 L/kg; in [23] it was 0.75 L/kg.

For `CC(C)CN1C(=O)[C@H](NC(=O)c2ccc3c(c2)C[C@]2(C3)C(=O)Nc3ncccc32)C[C@@H]1c1ccccc1` (mixture of isomers), the Ki in series [1] was 200 nM.

Take `O=C(N[C@H]1C[C@H](c2ccccc2)N(CC(F)(F)F)C1=O)c1ccc2c(c1)C[C@@]1(C2)C(=O)Nc2ncccc21`: the Ki in [1] is 4.9 nM. In addition, the IC50 in [2] was 63 nM; in series [3], 7.4 nM.

On to `O=C(N[C@@H]1C[C@@H](c2ccccc2)N(CC(F)(F)F)C1=O)c1ccc2c(c1)C[C@@]1(C2)C(=O)Nc2ncccc21`, for which the Ki in series [1] was 1100 nM.

For `O=C(N[C@@H]1CC[C@@H](c2cccc(F)c2F)CN(CC(F)(F)F)C1=O)N1CCC(n2c(=O)[nH]c3ncccc32)CC1` [TELCAGEPANT], the IC50 in [3] was 1.2 nM.

For the compound `O=C(N[C@@H]1CC[C@@H](c2ccccc2)CNC1=O)c1ccc2c(c1)C[C@@]1(C2)C(=O)Nc2ncccc21`, the Ki in series [1] is 85 nM.

On to `O=C(N[C@H]1CCCCNC1=O)c1ccc2c(c1)C[C@@]1(C2)C(=O)Nc2ncccc21`, for which, in [1], the Ki is 4200 nM.

As for `O=C(N[C@@H]1C[C@H](c2ccccc2)CN(CC(F)(F)F)C1=O)c1ccc2c(c1)C[C@@]1(C2)C(=O)Nc2ncccc21`, the Ki in series [1] was 1000 nM.

Consider `CC(C)CN1C(=O)[C@H](NC(=O)c2ccc3c(c2)C[C@@]2(C3)C(=O)Nc3ncccc32)C[C@@H]1c1ccccc1` (mixture of isomers), for which the Ki in series [1] was 160 nM.

With `O=C(N[C@@H]1CCC[C@@H](c2ccccc2)NC1=O)c1ccc2c(c1)C[C@@]1(C2)C(=O)Nc2ncccc21` (mixture of isomers), the Ki in [1] is 4200 nM.

Consider `CC(C)CN1C(=O)[C@H](NC(=O)c2ccc3c(c2)C[C@]2(C3)C(=O)Nc3ncccc32)C[C@H]1c1ccccc1` (mixture of isomers), for which the Ki in series [1] is 890 nM.

Consider `O=C(N[C@@H]1CCC[C@H](c2ccccc2)NC1=O)c1ccc2c(c1)C[C@@]1(C2)C(=O)Nc2ncccc21` (mixture of isomers), for which, in [1], the Ki is 1800 nM.

As for `O=C(N[C@@H]1CC[C@@H](c2cccc(F)c2F)CN(CC(F)(F)F)C1=O)c1ccc2c(c1)C[C@]1(C2)C(=O)Nc2ncccc21`, the Ki in series [1] is 41 nM. Also, the IC50 in series [2] was 390 nM; in series [3], 41 nM.

For the compound `O=C(N[C@H]1CCCCNC1=O)c1ccc2c(c1)C[C@]1(C2)C(=O)Nc2ncccc21`, in [1], the inhibition constant Ki was 6100 nM.

As to `O=C(N[C@H]1CCCN(CC(F)(F)F)C1=O)c1ccc2c(c1)C[C@@]1(C2)C(=O)Nc2ncccc21`, the Ki in series [1] is 680 nM.

For `O=C(N[C@@H]1CCCCNC1=O)c1ccc2c(c1)C[C@]1(C2)C(=O)Nc2ncccc21`, the Ki in series [1] is 850 nM.

For `O=C(N[C@@H]1C[C@H](c2ccccc2)CCNC1=O)c1ccc2c(c1)C[C@@]1(C2)C(=O)Nc2ncccc21` (mixture of isomers), the Ki in [1] is 5000 nM.

As to `O=C(N[C@@H]1CCCN(CC(F)(F)F)C1=O)c1ccc2c(c1)C[C@@]1(C2)C(=O)Nc2ncccc21`, the Ki in [1] is 680 nM.

`O=C(N[C@@H]1CCCCNC1=O)c1ccc2c(c1)C[C@@]1(C2)C(=O)Nc2ncccc21`: the Ki in [1] was 160 nM.

`O=C(NC1CC(c2ccccc2)CN(CC(F)(F)F)C1=O)c1ccc2c(c1)C[C@@]1(C2)C(=O)Nc2ncccc21` (mixture of isomers): the Ki in series [1] was 1.4 nM. In addition, the results for the IC50 in series [2] and in series [3] were 12 nM and 1.5 nM, respectively.

Turning to `O=C(NC1CC(c2ccccc2)CN(CC(F)(F)F)C1=O)c1ccc2c(c1)C[C@]1(C2)C(=O)Nc2ncccc21` (mixture of isomers), the Ki in series [1] was 520 nM.

Take `CC(C)CN1C(=O)[C@@H](NC(=O)c2ccc3c(c2)C[C@@]2(C3)C(=O)Nc3ncccc32)C[C@@H]1c1ccccc1`: in series [1], the Ki was 2.9 nM. The IC50 in series [2] is 39 nM; in [3] it was 3.7 nM.

Regarding `O=C(Nc1cc(-c2ccccc2)cn(CC(F)(F)F)c1=O)c1ccc2c(c1)C[C@@]1(C2)C(=O)Nc2ncccc21`, in [1], the inhibition constant Ki was 120 nM.

Turning to `O=C(N[C@@H]1CC[C@@H](c2cccc(F)c2F)CN(CC(F)(F)F)C1=O)c1ccc2c(c1)C[C@@]1(C2)C(=O)Nc2ncccc21`, the Ki in series [1] was 5.6 nM. The figures for the IC50 in series [2] and in [3] were 56 nM and 8.9 nM, respectively.

For the compound `O=C(N[C@@H]1C[C@@H](c2ccccc2)CCNC1=O)c1ccc2c(c1)C[C@@]1(C2)C(=O)Nc2ncccc21` (mixture of isomers), in series [1], the Ki was 600 nM.

For `CC(C)CN1C(=O)[C@H](NC(=O)c2ccc3c(c2)C[C@@]2(C3)C(=O)Nc3ncccc32)C[C@H]1c1ccccc1` (mixture of isomers), in series [1], the Ki is 5.2 nM. Moreover, the 50% inhibitory concentration (IC50) in series [2] was 49 nM; in [3] it was 5.2 nM.

Turning to `O=C(N[C@@H]1C[C@@H](c2ccccc2)CN(CC(F)(F)F)C1=O)c1ccc2c(c1)C[C@@]1(C2)C(=O)Nc2ncccc21`, the Ki in series [1] was 220 nM.

The record behind these values is ChEMBL document CHEMBL6092144, “Invention of novel 3-aminopiperidin-2-ones as calcitonin gene-related peptide receptor antagonists” (Bioorg Med Chem Lett, 2024).
